Source: patent publication US20240124504A1, “AROMATIC HETEROCYCLIC COMPOUND, AND PHARMACEUTICAL COMPOSITION AND APPLICATION THEREOF” (GT APEIRON THERAPEUTICS LIMITED, priority 2020, published 2024)

Columns and labels:
[1] = target: CDK7/cyclinH/MAT1 complex (Homo sapiens, UniProt P50613); assay: In-vitro enzymatic inhibitory activity testing, CDK7 inhibition assay (Caliper EZ Reader II); type: biochemical; conditions: CDK7/cyclinH/MAT1 6 nM, 180 min at 27° C.
Procedure, shortened: (§1)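 Enzyme preincubated 10 min with compound, then peptide substrate plus ATP added in 80 mM MES pH 6.5, 10 mM MgCl2 buffer; 180 min at 27 °C, stopped with EDTA.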

CDK9/cyclinT1 complex = CDK9/cyclinT1 complex (Homo sapiens, UniProt P50750); assay: In-vitro enzymatic inhibitory activity testing, CDK9 inhibition assay (Caliper EZ Reader II); type: biochemical; conditions: CDK9/cyclinT1 8 nM, 180 min at 27° C.
CDK9/cyclinT1 complex, sequence (P50750 whole entry, species assumed): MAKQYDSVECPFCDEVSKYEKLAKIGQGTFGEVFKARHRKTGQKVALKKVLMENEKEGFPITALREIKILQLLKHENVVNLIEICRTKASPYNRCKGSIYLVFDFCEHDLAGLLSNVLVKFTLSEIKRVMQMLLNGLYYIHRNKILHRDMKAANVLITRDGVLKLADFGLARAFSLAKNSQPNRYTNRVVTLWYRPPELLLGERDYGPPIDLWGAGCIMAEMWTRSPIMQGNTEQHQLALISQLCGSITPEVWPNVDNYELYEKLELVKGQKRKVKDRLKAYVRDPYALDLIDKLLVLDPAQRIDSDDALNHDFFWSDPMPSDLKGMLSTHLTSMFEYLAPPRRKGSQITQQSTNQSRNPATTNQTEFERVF
CDK9/cyclinT1 complex, sequence (O60563 whole entry partner, species assumed): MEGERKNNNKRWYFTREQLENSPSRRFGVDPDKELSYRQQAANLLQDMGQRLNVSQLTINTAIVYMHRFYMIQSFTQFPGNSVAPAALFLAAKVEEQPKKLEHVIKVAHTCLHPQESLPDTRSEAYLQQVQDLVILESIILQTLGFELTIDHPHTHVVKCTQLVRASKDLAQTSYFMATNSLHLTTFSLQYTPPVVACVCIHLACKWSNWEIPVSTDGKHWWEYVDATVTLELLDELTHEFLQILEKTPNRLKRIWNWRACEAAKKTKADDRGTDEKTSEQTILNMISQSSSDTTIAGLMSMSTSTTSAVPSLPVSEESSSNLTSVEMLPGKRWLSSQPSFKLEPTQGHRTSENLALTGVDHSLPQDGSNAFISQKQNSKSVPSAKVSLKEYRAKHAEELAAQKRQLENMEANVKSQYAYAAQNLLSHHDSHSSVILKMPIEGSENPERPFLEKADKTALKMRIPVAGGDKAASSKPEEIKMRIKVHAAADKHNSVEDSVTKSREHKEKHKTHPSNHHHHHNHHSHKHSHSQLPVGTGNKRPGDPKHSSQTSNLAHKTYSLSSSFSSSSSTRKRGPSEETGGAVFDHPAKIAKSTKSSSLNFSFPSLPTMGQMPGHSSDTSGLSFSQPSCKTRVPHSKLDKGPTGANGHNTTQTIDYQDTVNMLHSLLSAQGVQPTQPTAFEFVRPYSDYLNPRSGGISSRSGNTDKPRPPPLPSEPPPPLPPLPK
Procedure, shortened: as §1

[2] = test system: human breast cancer cells HCC70; assay: Cell biological activity detection (CyQuant, 72 hours), HCC70; type: cell-based; conditions: Homo sapiens, HCC70, 72 h, incubation for 72 hours
Procedure, shortened: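 A2780 and HCC70 cells seeded at 2000/well in RPMI 1640 + 10% FBS, treated next day with 9-point compound dilutions (top 10 μM, 1:4; 0.2% DMSO) for 72 h at 37 °C. Cell number read by CyQuant Direct nucleic acid stain (ex 488 nm); IC50 from dose–response fit.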

[3] = Caco-2 membrane permeability and efflux rate; type: in vitro ADME; conditions: human, Caco-2, Caco-2, 5 μM; for Papp B→A at 2 h, 5 μM: basal end to top end; for efflux ratio at 2 h, 5 μM: read-out: ER (efflux rate); for Papp A→B at 2 h, 5 μM: top end to basal end
Procedure: The recovered Caco-2 cell suspension was seeded into a […] plate and cultured for 14-18 days. After being cultured for 14 days, the cells were fused and differentiated to be ready for a transport experiment. The Caco-2 cell plate was taken out from the incubator. Stock solutions of a to-be-tested compound and a control compound were formulated with DMSO and diluted with an HBSS (10 mM HEPES, pH 7.4) buffer to a final concentration of 5 μM. A test compound solution and a control drug solution were added to each well (top end) of an insert culture plate, and the HBSS (10 mM HEPES, pH 7.4) buffer was added to each well of a test compound receiving plate (basal end). When measuring the transport rate of the compound from the basal end to the top end, the test compound solution and the control drug solution were added to each well of the receiving plate (basal end), the HBSS (10 mM HEPES, pH 7.4) buffer solution was added to each well (top end) of the insert culture plate for the test compound solution, and incubation was carried out for 2 hours in a CO2 incubator at 37° C. After the transport experiment was completed, vortexing was carried out for 10 minutes at 1000 rpm. After sample quenching at each time point, LC/MS/MS analysis was carried out. A fluorescence value was measured after a two-hour transport experiment, a lucifer yellow solution was added in a transwell chamber (top end), a transport buffer solution was added in the basal end, and incubation was carried out for 30 minutes in the CO2 incubator at 37° C. The solution was taken out directly from the top end and the basal end (using basolateral wells) and transferred to a new 96-well plate. A cell fluorescence value was measured by a microplate reader (to detect membrane integrity), an excitation wavelength was […], and an emission wavelength was […]. All data were calculated by using Microsoft Excel, and a peak area was calculated according to chromatograms. An apparent permeability coefficient (Papp, unit: 10-6, cm/s) and an efflux rate (ER) of the compounds in Caco-2 cells were calculated by the specific concentrations of a receiving end and an administering end.

CDK7/cyclinH/MAT1 complex, sequence (P50613 whole entry, species assumed): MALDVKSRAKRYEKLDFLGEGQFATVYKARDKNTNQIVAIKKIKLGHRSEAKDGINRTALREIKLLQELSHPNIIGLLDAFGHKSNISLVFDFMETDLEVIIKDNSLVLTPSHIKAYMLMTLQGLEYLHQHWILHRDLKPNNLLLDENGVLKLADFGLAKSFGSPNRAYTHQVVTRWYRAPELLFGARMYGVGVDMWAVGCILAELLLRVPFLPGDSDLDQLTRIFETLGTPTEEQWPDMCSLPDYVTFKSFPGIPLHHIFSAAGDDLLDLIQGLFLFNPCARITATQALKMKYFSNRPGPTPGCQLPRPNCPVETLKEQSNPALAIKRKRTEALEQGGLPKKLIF
CDK7/cyclinH/MAT1 complex, sequence (P51946 whole entry partner, species assumed): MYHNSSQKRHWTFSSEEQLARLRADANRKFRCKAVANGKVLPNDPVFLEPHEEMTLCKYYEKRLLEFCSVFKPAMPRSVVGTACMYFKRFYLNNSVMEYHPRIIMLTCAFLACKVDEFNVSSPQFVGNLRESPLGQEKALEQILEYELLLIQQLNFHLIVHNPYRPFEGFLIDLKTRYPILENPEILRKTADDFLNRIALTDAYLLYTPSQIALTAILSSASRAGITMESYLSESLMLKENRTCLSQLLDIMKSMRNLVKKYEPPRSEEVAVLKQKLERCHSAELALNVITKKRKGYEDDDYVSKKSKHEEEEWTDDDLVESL
CDK7/cyclinH/MAT1 complex, sequence (P51948 whole entry partner, species assumed): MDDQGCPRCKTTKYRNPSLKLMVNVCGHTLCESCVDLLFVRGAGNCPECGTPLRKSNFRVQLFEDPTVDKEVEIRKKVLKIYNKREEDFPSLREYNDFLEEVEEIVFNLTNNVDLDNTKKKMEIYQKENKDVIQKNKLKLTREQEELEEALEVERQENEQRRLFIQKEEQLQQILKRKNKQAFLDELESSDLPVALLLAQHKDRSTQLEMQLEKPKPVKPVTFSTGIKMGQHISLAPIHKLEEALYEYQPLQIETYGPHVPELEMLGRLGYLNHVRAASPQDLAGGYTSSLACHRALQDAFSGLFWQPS

Compound | IC50 [1] [nM] | IC50 (CDK9/cyclinT1 complex) [nM] | Papp B→A at 2 h, 5 μM [3] [×10⁻⁶ cm/s] | efflux ratio at 2 h, 5 μM [3] | Papp A→B at 2 h, 5 μM [3] [×10⁻⁶ cm/s] | IC50 [2] [nM]
C[C@@H](CO)Nc1ncc(Cl)c(-c2c[nH]c3c(P(C)(C)=O)cccc23)n1 [Compound 103, (S)-(3-(5-chloro-2-((1-hydroxypropan-2-yl)amino)pyrimidin-4-yl)-1H-indole-7-yl)dimethylphosphine oxide] | 20 to 200 | > 50000 | 36.1 | 5.38 | 6.7 | 20 to 200
CP(C)(=O)c1cccc2c(-c3nc(NC[C@H](F)CO)ncc3C(F)(F)F)c[nH]c12 [Compound 86, (S)-(3-(2-((2-fluoro-3-hydroxypropyl)amino)-5-(trifluoromethyl)pyrimidin-4-yl)-1H-indole-7-yl)dimethylphosphine oxide] | < 20 | > 50000 | 29.5 | 20.5 | 1.44 | 20 to 200
CP(C)(=O)c1cccc2c(-c3nc(NC4(CO)CC4)ncc3C(F)(F)F)c[nH]c12 [Compound 94, (3-(2-((1-(hydroxymethyl)cyclopropyl)amino)-5-(trifluoromethyl)pyrimidin-4-yl)-1H-indole-7-yl)dimethylphosphine oxide] | 20 to 200 | > 50000 | 31.4 | 12.5 | 2.51 | 20 to 200
C[C@@H](CO)Nc1ncc(C(F)(F)F)c(-c2c[nH]c3c(P(C)(C)=O)c(C#N)ccc23)n1 [Compound 79, (S)-7-(dimethylphosphoryl)-3-(2-((1-hydroxy-propan-2-yl)amino)-5-(trifluoromethyl)pyrimidin-4-yl)-1H-indole-6-carbonitrile] | < 20 | > 50000 | 22.3 | 4.38 | 5.1 | 20 to 200

Further lines, with some results ahead:

IC50 [1] [nM] | IC50 (CDK9/cyclinT1 complex) [nM] | Papp B→A at 2 h, 5 μM [3] [×10⁻⁶ cm/s] | efflux ratio at 2 h, 5 μM [3] | Papp A→B at 2 h, 5 μM [3] [×10⁻⁶ cm/s] | Compound | IC50 [2] [nM]
< 20 | > 50000 | 33.5 | 65.9 | 0.51 | C[C@@H](CO)Nc1ncc(C#N)c(-c2c[nH]c3c(P(C)(C)=O)cccc23)n1 [Compound 179, (S)-4-(7-(dimethylphosphoryl)-1H-indole-3-yl)-2-((1-hydroxypropan-2-yl)amino)pyrimidine-5-carbonitrile] | 20 to 200
< 20 | 5000 to 50000 | 24 | 4.31 | 5.57 | CP(C)(=O)c1cccc2c(-c3nc(N[C@H]4CCC[C@@H]4O)ncc3C(F)(F)F)c[nH]c12 [Compound 155, (3-(2-(((1S,2S)-2-hydroxycyclopentyl)amino)-5-(trifluoromethyl)pyrimidin-4-yl)-1hydro-indole-7-yl)dimethylphosphine oxide] | < 20
< 20 | > 50000 | 24.6 | 7.41 | 3.32 | CP(C)(=O)c1cccc2c(-c3nc(NCC4CC(O)C4)ncc3C(F)(F)F)c[nH]c12 (stereo not drawn) [Compound 126, (3-(2-(((3-hydroxycyclobutyl)methyl)amino)-5-(trifluoromethyl)pyrimidin-4-yl)-1H-indole-7-yl)dimethylphosphine oxide] | 20 to 200
< 20 | 5000 to 50000 | 34.6 | 12.4 | 2.79 | CN(C)[C@H]1CC[C@H](Nc2ncc(C(F)(F)F)c(-c3c[nH]c4c(P(C)(C)=O)cccc34)n2)C1 [Compound 137, (3-(2-(((1S,3S)-3-(dimethylamino)cyclopentyl)amino)-5-(trifluoromethyl)pyrimidin-4-yl)-1H-indole-7-yl)dimethylphosphine oxide] | < 20
< 20 | 5000 to 50000 | 32.4 | 16.3 | 1.99 | CP(C)(=O)c1cccc2c(-c3nc(N[C@H]4CC[C@H](O)C4)ncc3C(F)(F)F)c[nH]c12 [Compound 83] | < 20
